Test system: HSV-1
Experiment: Plaque reduction of HSV-1 on Vero cell monolayer
Type: cell-based, herpes simplex virus type 1 (MacIntyre strain)
Conditions: valacyclovir 16 μM, 20(S)-Rg3 50 μM, about 50 PFU/well, 48 hours; for Number of Plaques: ± standard error
Method: Viruses and Quantification. Herpes simplex virus type 1 (HSV-1, MacIntyre strain, ATCC, VR-539) or herpes simplex virus type 2 (HSV-2, ATCC, VR-734) were used in these studies. Virus titer was determined by plaque assay. Briefly, following 2 hour-adsorption of various virus dilutions onto a Vero cell monolayer in a 24-well plate, the medium was removed and cells were overlaid with 1.5% carboxymethylcellulose (Sigma Chemical Company, St. Louis, Mo.) and incubated 48 hours at 37° C. with 5% CO2. After incubation, cells were fixed with methanol, stained with Giemsa (Sigma Chemical Company, St. Louis, Mo.) and plaques were counted. Each virus dilution was prepared in quadruplicate.
The plaque assay procedure also was used to evaluate the percent plaque reduction; the only procedural change was that a constant virus concentration was used (50 plaque forming units (PFU)/well). Plaque reduction was measured by comparing the control (virus only), with valacyclovir (16 μM) with virus or 20(S)-Rg3 (50 μM) with virus. Sample wells were evaluated in quadruplicate. Following the 2 hour-virus adsorption, the methylcellulose-medium containing the same concentrations of valacyclovir or Rg3 was added to the appropriate wells. After 48 hours, plaques were fixed, stained and counted.

CC(C)=CCC[C@](C)(O)C1CC[C@]2(C)C1[C@H](O)CC1[C@@]3(C)CC[C@H](O[C@@H]4OC(CO)[C@@H](O)[C@@H](O)C4O[C@@H]4OC(CO)[C@@H](O)[C@@H](O)C4O)C(C)(C)C3CC[C@]12C (stereo partly drawn) [20(S)-Rg3, 20(S)-ginsenoside-Rg3]
Percent Reduction of plaques compared to the control: 97.3% | Number of Plaques: 1.5 ± 0.3 | Number of Plaques (listed as Rg3): 1.5±0.3
